Target: T1, human ANO6 (variant 5) (Homo sapiens, UniProt Q4KMQ2)
T1 construct: expressing human ANO6 (variant 5; NP_001191732.1); expressed in transfected cells; host or cells: Fischer rat thyroid (FRT) cells
T1 sequence (Q4KMQ2 1-931 isoform Q4KMQ2-2): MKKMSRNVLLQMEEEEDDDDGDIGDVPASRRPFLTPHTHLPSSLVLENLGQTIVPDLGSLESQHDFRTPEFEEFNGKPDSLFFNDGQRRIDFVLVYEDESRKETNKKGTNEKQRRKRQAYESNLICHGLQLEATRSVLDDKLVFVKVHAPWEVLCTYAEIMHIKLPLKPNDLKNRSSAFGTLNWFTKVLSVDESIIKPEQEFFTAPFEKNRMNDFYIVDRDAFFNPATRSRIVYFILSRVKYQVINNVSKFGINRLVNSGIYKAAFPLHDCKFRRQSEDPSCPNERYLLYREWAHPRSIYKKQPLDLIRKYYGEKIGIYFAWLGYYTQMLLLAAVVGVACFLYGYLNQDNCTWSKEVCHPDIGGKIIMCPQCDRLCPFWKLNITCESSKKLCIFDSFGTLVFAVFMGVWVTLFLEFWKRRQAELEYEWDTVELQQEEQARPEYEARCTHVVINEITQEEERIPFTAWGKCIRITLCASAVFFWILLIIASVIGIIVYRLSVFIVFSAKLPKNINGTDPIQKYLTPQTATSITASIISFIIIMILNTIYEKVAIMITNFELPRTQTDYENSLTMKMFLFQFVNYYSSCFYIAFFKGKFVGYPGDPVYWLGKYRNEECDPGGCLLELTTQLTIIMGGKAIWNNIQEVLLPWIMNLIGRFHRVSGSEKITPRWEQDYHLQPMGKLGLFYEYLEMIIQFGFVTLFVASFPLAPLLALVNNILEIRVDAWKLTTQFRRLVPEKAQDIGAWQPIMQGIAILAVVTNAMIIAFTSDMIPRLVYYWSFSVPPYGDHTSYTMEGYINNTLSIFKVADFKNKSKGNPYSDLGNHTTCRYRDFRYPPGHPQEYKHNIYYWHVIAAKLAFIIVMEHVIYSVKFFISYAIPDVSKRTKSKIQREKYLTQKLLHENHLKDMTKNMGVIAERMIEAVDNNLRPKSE
Experiment: Lact C2 Assay (Measuring Phosphatidylserine Externalization Scramblase Function), ionomycin-treated Fischer rat thyroid (FRT) cells expressing human ANO6 (variant 5); compounds at 50 nM, 100 nM and 1 μM
Type: cell-based
Conditions: 10 μM ionomycin, average of three tests, read-out: % Inhibition (phosphatidylserine externalization inhibitory activity); for inhibition at 0.05 µM: compound at 50 nM; for inhibition at 0.1 µM: compound at 100 nM
Description: Ionomycin (Alomonelab, cat. #I-700), DAPI (Sigma-Aldrich, cat. #D8417), paraformaldehyde (Biosesang, cat. #P2031), Lionheart FX automated fluorescence microscope (BioTek), Gen5™ software program (BioTek), and Image J analysis software program.
Fisher rat thyroid (FRT) cells expressing human ANO6 (variant 5; GenBank accession no. NP_001191732.1) were cultured at 37° C. under 5% Co2 conditions in DMEM/Ham's F-12 (1:1) medium supplemented with 10% Fetal Bovine Serum, 2 mM […], 100 units/mL penicillin, and 100 μg/mL streptomycin.
Fischer Rat Thyroid (FRT) cells (2×10^4 cells/well) expressing human ANO6 (variant 5) were cultured in a 96-well microplate for 24 hours. After the incubation, the cells were treated with compounds dissolved in DMSO to 1% v/v in each well at each concentration (50 nM, 100 nM, and 1 μM) and reacted for 10 minutes. Thereafter, each well was treated with ionomycin to a final concentration of 10 μM, allowed to react for 10 minutes, and then washed with 200 μL PBS. After washing, each well was treated with 50 μL of Lactadherin-C2 (Lact-C2)-GFP mixed in DMEM medium to a final concentration of 500 nM to stain phosphatidylserine, and cultured at 37° C. for 10 minutes. After completion of the reaction, the cells were washed with 200 μL PBS, and fixed with 4% paraformaldehyde for 5 minutes at room temperature. For morphological analysis, DAPI solution was added, and the cells were incubated for 15 minutes, followed by washing with PBS. The fluorescence intensity of Lact-C2-GFP bound to phosphatidylserine on the cell surface was measured using an automated fluorescence microscope. For quantitative analysis of the fluorescence intensity of Lact-C2-GFP, BioTek Gen5™ software and Image J analysis software programs were used.
Phosphatidylserine externalization inhibitory activity (%) by the compound was calculated through the following analysis method. Specifically, the background fluorescence value was subtracted from the measured Lact-C2-GFP fluorescence value, and the fluorescence value of the ionomycin non-treatment group and the ionomycin-treatment group in the same row where each test group was located in a 96-well microplate were calculated. In order to calculate the inhibitory activity (%) by the compound, the relative inhibitory activity was calculated by setting the compound and ionomycin non-treatment group to 100% inhibitory activity and the ionomycin alone treatment group to 0% inhibitory activity. To derive the results, the test was repeated three times, and the average values of the results were classified according to the range below and shown in Table 4 below (A: >60% inhibition, B: 30 to 60% inhibition, N/A: no test).

| inhibition at 0.05 µM | inhibition at 0.1 µM | SMILES |
| --- | --- | --- |
| 30 to 60% | > 60% | c1cc(Nc2ncc(-c3ccncn3)cn2)cc(-c2nc3ccccc3[nH]2)c1 [Example 76, N-[3-(1H-benzo[d]imidazol-2-yl)phenyl]-[4,5′-bipyrimidin]-2′-amine] |
| > 60% | > 60% | Fc1ccc2nc(-c3cccc(Nc4ccc(-c5cccnn5)cn4)c3)[nH]c2c1 [Example 55] |

Reference: patent publication US20260317306A1, “HETEROARYL DERIVATIVE COMPOUND AND USE THEREOF” (S2CBIO INC., priority 2022, published 2026)
